Measurements taken from publication PMC10518255, “A first-in-class pan-lysyl oxidase inhibitor impairs stromal remodeling and enhances gemcitabine response and survival in pancreatic cancer” (Nature Cancer, 2023).
Several values for one entry are separate records, joined by “and”; a condition that tells them apart may be missing. Equal entries are not always repeated.

Legend:
KPC PDAC tumors = experiment: SHG multiphoton imaging of fibrillar collagen in end-point KPC tumors; type: in vivo, mouse; conditions: for SHG peak signal intensity: 5 animals per group, 5 FOV per animal, single FOV values
Procedure: Fig. 4 PXS-5505 administered in a KPC in vivo survival study. a, Schematic of the KPC in vivo survival study. Presence of a primary tumor in KPC mice was confirmed by two independent researchers (positive diagnosis) before commencement of daily treatment (Tx) on one of four treatment arms as follows: vehicle, 0.9% saline; Gem, twice-weekly gemcitabine (100 mg kg^−1 i.p.); PXS-5505, daily PXS-5505 at 20 mg kg^−1 i.p.; and PXS-5505 + Gem, daily PXS-5505 at 20 mg kg^−1 i.p. + twice-weekly gemcitabine (100 mg kg^−1 i.p.). b, Table of median survival (since diagnosis/commencement of treatment) across the four treatment groups (n = 30 biologically independent animals (vehicle), n = 31 biologically independent animals (Gem), n = 36 biologically independent animals (PXS-5505), n = 46 biologically independent animals (PXS-5505 + Gem)). c, Kaplan–Meier curves for overall survival across treatment arms (n = 30 biologically independent animals (vehicle), n = 31 biologically independent animals (Gem), n = 36 biologically independent animals (PXS-5505), n = 46 biologically independent animals (PXS-5505 + Gem)). P values determined by log-rank (Mantel–Cox) test. d, Representative maximum intensity projections of SHG multiphoton imaging for tumors from each treatment group (n = 1 FOV taken from one biologically independent animal per group) at end point (scale bars, 100 μm) and quantification of SHG peak signal intensity (n = 5 biologically independent animals per group and five FOV per animal). Data are mean ± s.d. […] Quantification of metastases (n = 18 biologically independent animals (vehicle), n = 18 biologically independent animals (Gem), n = 17 biologically independent animals (PXS-5505), n = 15 biologically independent animals (PXS-5505 + Gem)). Data are mean ± s.d.
SHG imaging of fibrillar collagens was employed to analyze collagen density and organization as performed previously[28],[34],[58]. […] Intensity was recorded with a RLD HyD detector (440/20 nm). […] SHG signal intensities were measured using MATLAB (MathWorks) as described previously[28],[34],[58].

pSTAT3 = experiment: Immunohistochemistry of end-point KPC tumors: STAT3 activation; type: in vivo, mouse; conditions: for Quantification of STAT3 activation (pSTAT3 positive nuclear staining): Extended Data 6F, KPC tumours at endpoint, individual FOV
Procedure: All tissues or matrices, including patient TMAs, were fixed in 10% buffered formalin and embedded in paraffin. The 4-μm sections of samples were deparaffinized with xylene and rehydrated in graded ethanol washes. For immunohistochemistry, Bond Dewax Solution (AR9222) was used. Antigen retrieval was performed using Bond RX H2(30) protocol: HIER 30 min ER1 (citrate pH 6) OR ER2 (EDTA pH 9) at 100 °C. Slides were quenched in BOND Polymer Refine Detection (Leica Biosystems DS9800). […] Slides were digitized on an Aperio slide scanner and representative areas per tumor acquired and analyzed by researchers blinded to the conditions of the experiment.
Extended Data Fig. 6 PXS-5505 in combination with gemcitabine in a KPC model. a. Quantification of proliferating cells (Ki67 positive nuclear staining) in KPC tumors at end point, treated as indicated. 5 fields of view (500 μm × 500 μm) per mouse and 10 mice per cohort were scored. […] Quantification of percent coverage of αSMA positive staining in KPC tumors at end point, treated as indicated. 3 fields of view (1000 μm × 1000 μm) per mouse and 10 mice per cohort were scored. […] Quantification of percent coverage of PDGFR-ß positive staining in KPC tumors at end point, treated as indicated. 3 fields of view (1000 μm × 1000 μm) per mouse and 10 mice per cohort were scored. […] Quantification of pMLC2 positive staining in stromal regions of KPC tumors at end point, treated as indicated. 3 fields of view (500 μm × 500 μm) per mouse and 10 mice per cohort were scored. […] Quantification of tumor vasculature (CD31 positive staining) in KPC tumors at end point, treated as indicated. 3 fields of view (1000 μm × 1000 μm) per mouse and 10 mice per cohort were scored. […] Quantification of STAT3 activation (pSTAT3 positive nuclear staining) in KPC tumors at end point, treated as indicated. 3 fields of view (1000 μm × 1000 μm) per mouse and 5 mice per cohort were scored. […] Scale bars = 100 μm. g Quantification of macrophage infiltration (F4/80 positive staining) in KPC tumors at end point, treated as indicated. […]

Row | Compound | fibrillar collagen / stromal content by SHG (KPC PDAC tumors) | SHG peak signal intensity (KPC PDAC tumors) | Quantification of STAT3 activation (pSTAT3 positive nuclear staining) (pSTAT3) | pSTAT3-positive nuclear staining (pSTAT3; KPC tumors at end point)
1 | Nc1ccn([C@@H]2O[C@H](CO)[C@@H](O)C2(F)F)c(=O)n1 [Gem, gemcitabine] | significantly increased stromal content | 116.837 and 121.251 and 74.7808 and 58.0704 and 58.6614 and 88.5172 and 66.9647 and 76.4458 and 85.1379 and 61.658 and 86.6036 and 56.3648 and 49.2982 and 91.4138 and 56.7061 and 67.2683 and 73.645 and 75.3134 and 83.1972 and 82.1163 and 64.6996 and 72.2796 and 40.261 and 45.2578 and 54.2825 | 1.773 and 0.7075 and 2.095 and 2.515 and 2.91 and 1.454 and 7.421 and 2.089 and 1.705 and 5.289 and 6.71 and 3.256 and 6.948 and 7.388 and 6.1144 | significantly increased levels of pSTAT3-positive staining
2 | Cl.Cl.NC/C=C(\F)CS(=O)(=O)c1cccc2cccnc12.O [PXS-5505, (Z)-3-fluoro-4-(quinolin-8-ylsulfonyl)but-2-en-1-amine dihydrochloride monohydrate] |  | 45.7826 and 42.6725 and 46.4759 and 51.7331 and 29.3681 and 51.0162 and 24.7531 and 11.1698 and 19.0235 and 45.4063 and 19.8592 and 24.5743 and 17.8792 and 16.4101 and 14.0868 and 27.3224 and 22.509 and 34.8879 and 24.4703 and 26.4774 and 34.2776 and 17.1388 and 29.5006 and 45.3832 and 44.8772 | 2.225 and 1.368 and 3.504 and 0.042 and 0 (2×) and 3.991 and 1.153 and 0.6262 and 11.8493 and 3.81 and 4.532 and 0.05376 | 
